Reference: patent US8987195B2 (priority 2012, dated 2015)
Read-outs that look alike come from different tables or passages of the source.

Experiments:
HCV genotype 1b replicon = assay: HCV replicon assay, genotype 1b replicon EC50; assay type: cell-based, Hepatitis C virus; details: genotype 1b replicon, read-out: EC50 [gt-1b]
Procedure: Measuring Compound Inhibitory Potency (Genotype 1b Replicon EC50 (nM))
Measurement of inhibition by compounds was performed using the HCV replicon system. Several different replicons encoding different HCV genotypes or mutations were used. In addition, potency measurements were made using different formats of the replicon assay, including different ways of measurements and different plating formats. See Jan M. Vrolijk et al., A replicons-based bioassay for the measurement of interferons in patients with chronic hepatitis C, 110 J. VIROLOGICAL METHODS 201 (2003); Steven S. Carroll et al., Inhibition of Hepatitis C Virus RNA Replication by 2′-Modified Nucleoside Analogs, 278(14) J. BIOLOGICAL CHEMISTRY 11979 (2003). However, the underlying principles are common to all of these determinations, and are outlined below.
Stable neomycin phosphotransferase encoding replicon-harboring cell lines were used, so all cell lines were maintained under G418 selection prior to the assay. In some cases the cell lines encoded a luciferase:Neo^r fusion and could be assayed either directly by determination of RNA copy number, or indirectly through measurement of the luciferase activity.
To initiate an assay, replicon cells were plated in the presence of a dilution series of test compound in the absence of G418. Typically, the assays were performed in a 96-well plate format for manual operation, or a 384 well plate in an automated assay. Replicon cells and compound were incubated for 24-48 hours, depending on the assay. At the end of the assay, cells are washed free of media and compound and then lysed. For direct quantitation, RNA levels were measured by ^32P-probe hybridization and protection, or in a TAQMAN based assay and normalized to cellular cyclophilin A RNA levels. In some cases, luciferase activity was measured using a conventional luciferase assay. In all cases EC50 determinations were calculated as a percent of a DMSO control by fitting the data to a four parameter fit function.

[1] = target: HCV NS3/4A protease genotype 1b (Hepatitis C virus genotype 1b, UniProt P26663); assay: HCV NS3/4A protease time-resolved fluorescence (TRF) assay, Ki against genotype 1b; assay type: biochemical; details: IC50 [gt-1b] (nM), NS3/4A genotype 1b, enzyme 0.2 nM; K+ salt
Chain of HCV NS3/4A protease genotype 1b (P26663 1027-1657): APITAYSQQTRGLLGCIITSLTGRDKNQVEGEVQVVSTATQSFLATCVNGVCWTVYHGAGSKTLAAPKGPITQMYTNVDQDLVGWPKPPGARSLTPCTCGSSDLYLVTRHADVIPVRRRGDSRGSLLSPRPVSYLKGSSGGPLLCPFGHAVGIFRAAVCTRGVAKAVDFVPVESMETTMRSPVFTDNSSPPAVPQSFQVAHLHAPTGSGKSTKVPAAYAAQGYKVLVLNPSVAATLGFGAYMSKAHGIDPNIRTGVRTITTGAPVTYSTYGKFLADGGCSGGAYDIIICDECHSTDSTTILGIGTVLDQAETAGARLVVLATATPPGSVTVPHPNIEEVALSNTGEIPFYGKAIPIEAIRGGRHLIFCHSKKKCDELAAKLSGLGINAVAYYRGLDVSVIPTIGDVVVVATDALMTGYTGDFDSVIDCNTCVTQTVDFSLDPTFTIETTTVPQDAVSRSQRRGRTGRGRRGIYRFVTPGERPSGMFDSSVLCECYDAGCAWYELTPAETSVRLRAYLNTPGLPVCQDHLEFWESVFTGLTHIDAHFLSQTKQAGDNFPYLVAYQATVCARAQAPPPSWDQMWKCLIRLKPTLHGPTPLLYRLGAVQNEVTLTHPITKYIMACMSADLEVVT
Chain of HCV NS3/4A protease genotype 1b (P26663 1658-1711): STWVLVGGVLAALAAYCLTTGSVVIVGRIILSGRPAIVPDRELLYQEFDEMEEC
Method in brief: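 Ki values come from IC50 fits corrected for substrate concentration and KM. The time-resolved fluorescence protease reaction used 25 nM peptide substrate, 2.5 h, room temperature, pH 7.5 HEPES buffer, after 30 min enzyme–inhibitor preincubation.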

Compound	EC50 (HCV genotype 1b replicon; Hepatitis C virus) [nM]	other results
Cc1nc2ccccc2c2c1O[C@]1(CC2)C[C@H]2C(=O)N[C@]3(C(=O)NS(=O)(=O)C4(C)CC4)C[C@H]3/C=C\CCCCC[C@H](NC(=O)OC3(C)CCC3)C(=O)N2C1 [Example 80, 1-methylcyclobutyl [(2R,6S,12Z,13aS,14aR,16aS)-5′-methyl-14a-{[(1-methylcyclopropyl)sulfonyl]carbamoyl}-5,16-dioxo-1,1′,2′,5,6,7,8,9,10,11,13a,14,14a,15,16,16a-hexadecahydrospiro[cyclopropa[e]pyrrolo[1,2-a][1,4]diazacyclopentadecine-2,3′-pyrano[2,3-c]quinolin]-6-yl]carbamate]	1.47	
COc1ccc2nc(C(F)(F)F)c3c(c2c1)[C@H](OC(=O)NS(=O)(=O)C1(C)CC1)C[C@]1(C[C@H]2C(=O)N[C@]4(C(=O)NS(=O)(=O)C5(C)CC5)C[C@H]4/C=C\CCCCC[C@H](NC(=O)OC(C)(C)C)C(=O)N2C1)O3 [Example 52, tert-Butyl ((1′R,2S,6S,13aS,14aR,16aS,Z)-9′-methoxy-14a-(((1-methylcyclopropyl)sulfonyl)carbamoyl)-1′-((((1-methylcyclopropyl)sulfonyl)carbamoyl)oxy)-5,16-dioxo-5′-(trifluoromethyl)-1′,2′,3,5,6,7,8,9,10,11,13a,14,14a,15,16,16a-hexadecahydro-1H-spiro[cyclopropa[e]pyrrolo[1,2-a][1,4]diazacyclopentadecine-2,3′-pyrano[2,3-c]quinolin]-6-yl)carbamate]		EC50 (HCV genotype 1b replicon): 1.77 nM
CC(C)OC(=O)N[C@H]1CCCCC/C=C\[C@@H]2C[C@@]2(C(=O)NS(=O)(=O)C2(C)CC2)NC(=O)[C@@H]2C[C@]3(CCc4c(c(-c5cccc(F)c5)nc5ccccc45)O3)CN2C1=O [Example 89, propan-2-yl [(2R,6S,12Z,13aS,14aR,16aS)-5′-(3-fluorophenyl)-14a-{[(1-methylcyclopropyl)sulfonyl]carbamoyl}-5,16-dioxo-1,1′,2′,5,6,7,8,9,10,11,13a,14,14a,15,16,16a-hexadecahydrospiro[cyclopropa[e]pyrrolo[1,2-a][1,4]diazacyclopentadecine-2,3′-pyrano[2,3-c]quinolin]-6-yl]carbamate]	2.85	
CC(C)(C)NC(=O)N[C@H]1CCCCC/C=C\[C@@H]2C[C@@]2(C(=O)NS(=O)(=O)C2(C)CC2)NC(=O)[C@@H]2C[C@]3(CCc4c(c(-c5cccc(F)c5)nc5ccccc45)O3)CN2C1=O [Example 23, (2R,6S,13aS,14aR,16aS,Z)-6-(3-tert-Butylureido)-5′-(3-fluorophenyl)-N-(1-methylcyclopropylsulfonyl)-5,16-dioxo-1′,2′,3,5,6,7,8,9,10,11,13a,14,14a,15,16,16a-hexadecahydro-1H-spiro[cyclopropa[e]pyrrolo[1,2-a][1,4]diazacyclopentadecine-2,3′-pyrano[2,3-c]quinoline]-14a-carboxamide]	9.13	
CC(C)(C)OC(=O)N[C@H]1CCCCC/C=C\C2CC2(C(=O)NS(=O)(=O)C2(C)CC2)NC(=O)C2C[C@]3(CCc4c(c(C5CC5)nc5ccccc45)O3)CN2C1=O (stereo partly drawn) [Example 18, tert-Butyl (2R,6S,13aS,14aR,16aS,Z)-5′-cyclopropyl-14a-(1-methylcyclopropylsulfonylcarbamoyl)-5,16-dioxo-1′,2′,3,5,6,7,8,9,10,11,13a,14,14a,15,16,16a-hexadecahydro-1H-spiro[cyclopropa[e]pyrrolo[1,2-a][1,4]diazacyclopentadecine-2,3′-pyrano[2,3-c]quinoline-]-6-ylcarbamate]	0.77	
CC(C)(C)OC(=O)N[C@H]1CCCCC/C=C\[C@@H]2C[C@@]2(C(=O)NS(=O)(=O)C2CC2)NC(=O)[C@@H]2C[C@]3(CCc4c(c(-c5cccc(F)c5)nc5ccccc45)O3)CN2C1=O [Example 15, tert-Butyl (2R,6S,13aS,14aR,16aS,Z)-14a-(cyclopropylsulfonylcarbamoyl)-5′-(3-fluorophenyl)-5,16-dioxo-1′,2′,3,5,6,7,8,9,10,11,13a,14,14a,15,16,16a-hexadecahydro-1H -spiro[cyclopropa[e]pyrrolo[1,2-a][1,4]diazacyclopentadecine-2,3′-pyrano[2,3-c]quinoline]-6-ylcarbamate]	9.36	
CC(C)(C)OC(=O)N[C@H]1CCCCC/C=C\[C@@H]2C[C@@]2(C(=O)O)NC(=O)[C@@H]2C[C@]3(CCc4c(c(-c5cccc(F)c5)nc5ccccc45)O3)CN2C1=O [Example 77, (2R,6S,12Z,13aS,14aR,16aS)-6-[(tert-butoxycarbonyl)amino]-5′-(3-fluorophenyl)-5,16-dioxo-1,1′,2′,6,7,8,9,10,11,13a,14,15,16,16a-tetradecahydrospiro[cyclopropa[e]pyrrolo[1,2-a][1,4]diazacyclopentadecine-2,3′-pyrano[2,3-c]quinoline]-14a(5H)-carboxylic acid]	> 100	
COc1ccc2nc(C(F)(F)F)c3c(c2c1)[C@H](OC(=O)NS(=O)(=O)C1(C)CC1)C[C@]1(C[C@H]2C(=O)N[C@]4(C(=O)NS(=O)(=O)C5(C)CC5)C[C@H]4/C=C\CCCCC[C@H](NC(=O)OC(C)(C)C)C(=O)N2C1)O3 [Example 53, tert-Butyl ((1′R,2S,6S,13aS,14aR,16aS,Z)-9′-methoxy-14a-(((1-methylcyclopropyl)sulfonyl)carbamoyl)-1′-((((1-methylcyclopropyl)sulfonyl)carbamoyl)oxy)-5,16-dioxo-5′-(trifluoromethyl)-1′,2′,3,5,6,7,8,9,10,11,13a,14,14a,15,16,16a-hexadecahydro-1H-spiro[cyclopropa[e]pyrrolo[1,2-a][1,4]diazacyclopentadecine-2,3′-pyrano[2,3-c]quinolin]-6-yl)carbamate]		EC50 (HCV genotype 1b replicon): 15.9 nM
CC1(S(=O)(=O)NC(=O)[C@@]23C[C@H]2/C=C\CCCCC[C@H](NC(=O)NC2CCCCC2)C(=O)N2C[C@@]4(CCc5c(c(-c6cccc(F)c6)nc6ccccc56)O4)C[C@H]2C(=O)N3)CC1 [Example 83, (2R,6S,12Z,13aS,14aR,16aS)-6-[(cyclohexylcarbamoyl)amino]-5′-(3-fluorophenyl)-N-[(1-methylcyclopropyl)sulfonyl]-5,16-dioxo-1,1′,2′,6,7,8,9,10,11,13a,14,15,16,16a-tetradecahydrospiro[cyclopropa[e]pyrrolo[1,2-a][1,4]diazacyclopentadecine-2,3′-pyrano[2,3-c]quinoline]-14a(5H)-carboxamide]	3.71	
CC(C)COC(=O)N[C@H]1CCCCC/C=C\[C@@H]2C[C@@]2(C(=O)NS(=O)(=O)C2(C)CC2)NC(=O)[C@@H]2C[C@]3(CCc4c(c(-c5cccc(F)c5)nc5ccccc45)O3)CN2C1=O [Example 21, Isobutyl (2R,6S,13aS,14aR,16aS,Z)-5′-(3-fluorophenyl)-14a-(1-methylcyclopropylsulfonylcarbamoyl)-5,16-dioxo-1′,2′,3,5,6,7,8,9,10,11,13a,14,14a,15,16,16a-hexadecahydro-1H-spiro[cyclopropa[e]pyrrolo[1,2-a][1,4]diazacyclopentadecine-2,3′-pyrano[2,3-c]quinoline]-6-ylcarbamate]	0.81	
COc1ccc2nc(C)c3c(c2c1)CC[C@]1(C[C@H]2C(=O)N[C@]4(C(=O)NS(=O)(=O)C5(C)CC5)C[C@H]4/C=C\CCCCC[C@H](NC(=O)OCC4CCC4)C(=O)N2C1)O3 [Example 213, cyclobutylmethyl [(2R,6S,12Z,13aS,14aR,16aS)-9′-methoxy-5′-methyl-14a-{[(1-methylcyclopropyl)sulfonyl]carbamoyl}-5,16-dioxo-1,1′,2′,5,6,7,8,9,10,11,13a,14,14a,15,16,16a-hexadecahydrospiro[cyclopropa[e]pyrrolo[1,2-a][1,4]diazacyclopentadecine-2,3′-pyrano[2,3-c]quinolin]-6-yl]carbamate]		IC50 [1]: 0.004 nM
